The values that follow come from PubChem BioAssay (NCI).

Some test systems named below: K-562 leukemia; MCF7 breast; CCRF-CEM leukemia; U251 CNS; 786-0 renal; NCI-H226 lung; MDA-MB-231 breast; UACC-257 melanoma; SNB-19 CNS; SK-MEL-2 melanoma; OVCAR-3 ovarian; SK-MEL-28 melanoma; IGROV1 ovarian; A498 renal; OVCAR-5 ovarian; MOLT-4 leukemia; HL-60(TB) leukemia; UACC-62 melanoma; MALME-3M melanoma; ACHN renal.
Holding throughout (assay): NCI-60 cell line screen, 48 h

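A five-concentration, 48-hour dose response in 96-well plates underlies each endpoint, interpolated linearly between surrounding concentrations. TGI is the concentration that stops growth completely.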

As to `Cc1cc(N(CCC#N)CCC#N)ccc1/C=C(\NC(=O)/C=C/c1ccccc1)C(=O)Nc1ccc(Cl)cc1`, the TGI in the experiment on K-562 leukemia is above 100 µM; in the experiment on MCF7 breast, above 100 µM; in the experiment on CCRF-CEM leukemia it was above 100 µM; in the experiment on U251 CNS, above 43.9 µM; in the experiment with 786-0 renal, above 100 µM; with NCI-H226 lung it was above 100 µM. The TGI in the experiment with MDA-MB-231 breast, in the experiment with UACC-257 melanoma, with SNB-19 CNS, in the experiment with SK-MEL-2 melanoma, with OVCAR-3 ovarian and with SK-MEL-28 melanoma was above 100 µM throughout. Also, the TGI is above 100 µM in the experiment on IGROV1 ovarian; above 100 µM in the experiment with A498 renal; above 100 µM in the experiment with OVCAR-5 ovarian; above 100 µM in the experiment on MOLT-4 leukemia; above 100 µM in the experiment on HL-60(TB) leukemia; above 14.7 µM in the experiment with UACC-62 melanoma. In addition, the TGI is above 50.9 µM in the experiment on MALME-3M melanoma and above 100 µM in the experiment on ACHN renal.
Regarding `CC1CC(=NC2CCCCC2)Nc2ccccc2N1Cc1ccccc1` (stereo not given), the TGI in the experiment with K-562 leukemia is above 36.1 µM; in the experiment with MCF7 breast it was 14.5 µM; in the experiment on CCRF-CEM leukemia, above 36.4 µM; with U251 CNS it was 19.9 µM; in the experiment with 786-0 renal, above 39 µM; with NCI-H226 lung, 27.8 µM. The TGI in the experiment on MDA-MB-231 breast stood at 17 µM; in the experiment with UACC-257 melanoma, 13.2 µM; in the experiment with SNB-19 CNS it was 24.2 µM; in the experiment on SK-MEL-2 melanoma it was 24.9 µM; in the experiment on OVCAR-3 ovarian, 20.4 µM; with SK-MEL-28 melanoma, 17.7 µM. In addition, the TGI amounted to 8.61 µM in the experiment with IGROV1 ovarian; 9.7 µM in the experiment with A498 renal; 24 µM with OVCAR-5 ovarian; 30 µM with MOLT-4 leukemia; 20.2 µM in the experiment with HL-60(TB) leukemia; 3.69 µM with UACC-62 melanoma. Further, the TGI in the experiment with MALME-3M melanoma was 8.8 µM; with ACHN renal, 22.8 µM.
With `Cc1nc2c(O)c3c(c(O)c2nc1C)C1C=CC3CC1`, the TGI in the experiment with K-562 leukemia was 4.31 µM; with MCF7 breast, 25.4 µM; in the experiment on CCRF-CEM leukemia it was 3.53 µM; in the experiment with U251 CNS it was 21.6 µM; in the experiment with 786-0 renal, 27.6 µM; in the experiment with NCI-H226 lung, 56.2 µM. Besides, the TGI with MDA-MB-231 breast is 10.1 µM; in the experiment with UACC-257 melanoma, 18.2 µM; in the experiment with SNB-19 CNS it was above 100 µM; with SK-MEL-2 melanoma, 33 µM; with OVCAR-3 ovarian, 21.2 µM; with SK-MEL-28 melanoma it was 30.8 µM. The TGI was found to be 17.9 µM in the experiment with IGROV1 ovarian; 81.5 µM with A498 renal; 34.9 µM in the experiment with OVCAR-5 ovarian; 2.9 µM in the experiment with MOLT-4 leukemia; 2.66 µM in the experiment on HL-60(TB) leukemia; 67.2 µM in the experiment with UACC-62 melanoma. Also, the TGI was determined as 26.1 µM in the experiment on MALME-3M melanoma and 28.5 µM in the experiment with ACHN renal.
In the case of `O=CC(O)C(O)C1OC(=O)c2cc(O)c(O)c(O)c2C2=C(O)C(O)=C3OC(=O)c4c(c(O)c(O)c5c4C3C2C(=O)O5)-c2c(cc(O)c(O)c2O)C(=O)OCC1O` (stereo not given), the TGI was 56.7 µM with K-562 leukemia; 39.7 µM with MCF7 breast; above 100 µM with CCRF-CEM leukemia; 70.2 µM in the experiment with U251 CNS; 32.2 µM in the experiment with 786-0 renal; above 100 µM in the experiment on NCI-H226 lung. The TGI is 58.1 µM in the experiment on MDA-MB-231 breast; above 100 µM in the experiment with UACC-257 melanoma; above 100 µM with SNB-19 CNS; above 100 µM with SK-MEL-2 melanoma; 57 µM in the experiment on OVCAR-3 ovarian; above 100 µM with SK-MEL-28 melanoma. Moreover, the TGI is above 100 µM with IGROV1 ovarian; above 100 µM in the experiment with A498 renal; above 100 µM in the experiment on OVCAR-5 ovarian; 63.3 µM in the experiment on MOLT-4 leukemia; 67.7 µM in the experiment on HL-60(TB) leukemia; above 100 µM in the experiment with UACC-62 melanoma. In addition, the TGI in the experiment with MALME-3M melanoma and in the experiment on ACHN renal was above 100 µM each time.
Regarding `CCO[C@@]12CCC3CC4CC[C@@](OCC)(O1)C4C32` (stereo not given in full), the TGI in the experiment with K-562 leukemia, in the experiment on MCF7 breast, with CCRF-CEM leukemia, in the experiment with U251 CNS, with 786-0 renal and in the experiment with NCI-H226 lung was above 100 µM each time. Moreover, the TGI with MDA-MB-231 breast, in the experiment on UACC-257 melanoma, in the experiment on SNB-19 CNS, in the experiment on SK-MEL-2 melanoma, with OVCAR-3 ovarian and in the experiment with SK-MEL-28 melanoma was above 100 µM throughout. Further, the TGI with IGROV1 ovarian, in the experiment with A498 renal, with OVCAR-5 ovarian, in the experiment with MOLT-4 leukemia, with HL-60(TB) leukemia and in the experiment on UACC-62 melanoma was above 100 µM in each case. In addition, the TGI with MALME-3M melanoma and in the experiment with ACHN renal was above 100 µM throughout.
Take `O=[N+]([O-])C(C(Cl)=C(Cl)Cl)=C(n1nnc2ccccc21)n1nnc2ccccc21`: the TGI in the experiment on K-562 leukemia was 30.6 µM; with MCF7 breast it was above 55.4 µM; in the experiment with CCRF-CEM leukemia, 43.9 µM; in the experiment with U251 CNS, 62.8 µM; with 786-0 renal, 20.4 µM; with NCI-H226 lung it was above 73.9 µM. Besides, the TGI in the experiment with MDA-MB-231 breast is 38.5 µM; in the experiment with UACC-257 melanoma, above 68.1 µM; in the experiment with SNB-19 CNS, above 100 µM; in the experiment with SK-MEL-2 melanoma it was above 65.3 µM; in the experiment with OVCAR-3 ovarian, 62.4 µM; with SK-MEL-28 melanoma, 64.9 µM. The TGI with IGROV1 ovarian is 60.4 µM; in the experiment with A498 renal it was above 90 µM; with OVCAR-5 ovarian, above 66.3 µM; in the experiment with MOLT-4 leukemia, 26.2 µM; with HL-60(TB) leukemia, 13.5 µM; with UACC-62 melanoma it was above 58.2 µM. In addition, the TGI with MALME-3M melanoma was 49 µM; in the experiment on ACHN renal, above 65.8 µM.
In the case of `CC(=O)c1c2c(cc3c1CC1(Cc4cc5c(cc4C1)C(=O)CCC5)C3)CCCC2` (stereo not given), the TGI was 4.79 µM in the experiment with K-562 leukemia; 18.7 µM in the experiment with MCF7 breast; 5.01 µM with CCRF-CEM leukemia; above 100 µM in the experiment with U251 CNS; 33.1 µM in the experiment on 786-0 renal; 41.8 µM in the experiment with NCI-H226 lung. The TGI in the experiment with MDA-MB-231 breast amounted to 55.1 µM; in the experiment with UACC-257 melanoma it was 15.4 µM; with SNB-19 CNS, 80.9 µM; in the experiment on SK-MEL-2 melanoma it was 7.76 µM; in the experiment on OVCAR-3 ovarian it was 54.3 µM; in the experiment on SK-MEL-28 melanoma, 69.8 µM. In addition, the TGI in the experiment on IGROV1 ovarian is above 30.8 µM; in the experiment on A498 renal it was 8.95 µM; in the experiment with OVCAR-5 ovarian it was above 100 µM; in the experiment on MOLT-4 leukemia it was 7.96 µM; in the experiment on HL-60(TB) leukemia, 4.17 µM; with UACC-62 melanoma it was above 39.2 µM. Besides, the TGI was above 100 µM with MALME-3M melanoma and 17.2 µM in the experiment on ACHN renal.
